Data as given in patent US6387411B2, “Method for producing dispersible sterol and stanol compounds” (McNeil-PPC, Inc., priority 1998, dated 2002).

Key:
[1] = Turbidity of ground sterol/docusate sodium matrix shaken in water; format: physicochemical; settings: shaken 30 seconds in 25 milliliter deionized water; for Turbidity, Series 2: measured after standing 20 minutes; for Turbidity, Series 1: measured after standing one minute
Protocol: Yet another method to determine whether the desired level of hydrocarbon has been added to the sterol/stanol, is to measure the turbidity of the solution after 100 milligrams of the ground sterol/stanol/hydrocarbon are added to water. The greater turbidity value, the more effectively the solid solution is able to be dispersed in water. […] Preferred turbidity levels are greater than about 1500, preferably greater than 2000 and most preferably greater than 3000 Nephelometric Turbidity Units (NTU). As used herein turbidity is understood to be the same as defined by the United States Pharmacopeia, 15th Edition, the light scattering effect of suspended particles and turbidity as the measure of the decrease in the incident beam intensity per unit length of a given suspension. The range of turbidty values is from 0 to 20,000 NTU. As a point of reference the turbidity of water is zero. The turbidity of the samples is measured at room temperature.
A docusate sodium/β-sitosterol matrix was prepared. The sample was shaken for 30 seconds in a vial containing 25 milliliter deionized water. In Series 1, turbidity measurements were taken after allowing the shaken sample to stand one minute. In Series 2, measurements were made after standing for 20 minutes.

[2] = Wetting and time to disperse of powdered matrix in unstirred water; format: physicochemical; settings: similar conditions to Example 5 (200 mg in 250 ml water); up to three days vigorous stirring
Text: Another technique for measuring the crystallinity of the solid matrix is to measure the time in which a ground powdered sample of the solid takes to disperse in unstirred water. When an appropriate amount of the appropriate hydrocarbon material has been added, […], preferably in less than about 45 seconds and most preferably less than about 30 seconds. Agitation, including mild agitation such as a stirring bar, can be employed to enhance the dissolution of the solid solution in water.
Additional sitosterol/docusate sodium matrices were prepared and added to water.

SMILES	Turbidity, Series 2 [1] [NTU]	Turbidity, Series 1 [1] [NTU]	Wetting in water [2]
CCCCC(CC)COC(=O)CC(C(=O)OCC(CC)CCCC)S(=O)(=O)[O-].[Na+] (centres unmarked) [100% docusate sodium, docusate sodium]	0.441	1.22	–
CC[C@H](CC[C@@H](C)[C@H]1CC[C@H]2[C@@H]3CC=C4C[C@@H](O)CC[C@]4(C)[C@H]3CC[C@]12C)C(C)C [100% sterol, β-sitosterol]	523	1301	does not wet at all
